Results on one compound are retold here after patent EP3733277B1, “PATTERNED SUBSTRATE HAVING HYDROPHILIC AND HYDROPHOBIC AREAS” (Karlsruher Institut für Technologie (KIT), priority 2019, dated 2020).

The subject of this experiment is Jurkat cells. The experiment is described as follows: Dose-response of doxorubicin on Jurkat cells cultured on droplet microarrays (DMA) with different surfaces or in microtiter plates; viability by Calcein AM / Propidium Iodide staining. The following applies: Homo sapiens. Format: cell-based. The method, then: Jurkat cells were treated with anti-cancer drug doxorubicin on DMAs containing different surfaces and coatings ((1) non-polymer surface with gelatine coating, (2) non-polymer surface without coating, (3) polymer surface with gelatine coating, which is necessary for culturing of cells on polymer, but not on non-polymer surface). Cells were cultured in 100 nL droplets volume and 100 cells per droplet on 1 mm square hydrophilic spots. Cells were incubated with drug for 24 hours. Afterwards cells were stained with Calcein AM (stains live cells) and Propidium Iodide (stains dead cells) to estimate viability of cells. DMAs were imaged using Olympus IX microscope. Image analysis was performed in Imaged software.
IC50 values were calculated in Origin software by fitting the dose-response curves shown in (a).

Structures are written as SMILES.

One may read the IC50 as the point on the concentration scale where inhibition reaches its midpoint. For `COc1cccc2c1C(=O)c1c(O)c3c(c(O)c1C2=O)C[C@@](O)(C(=O)CO)C[C@@H]3O[C@H]1C[C@H](N)[C@H](O)[C@H](C)O1` [doxorubicin], the 50% inhibitory concentration (IC50) was 0.19 µM (24 h, Surface: Non-polymer DMA (without coating), 100 nL droplets, 100 cells per droplet, 24 hours); 35.2 µM (24 h, Surface: Non-polymer DMA / gelatin, 100 nL droplets, 100 cells per droplet, 24 hours); 203 µM (24 h, Surface: Polymer DMA / gelatin (HEMA-EDMA polymer), 100 nL droplets, 100 cells per droplet, 24 hours); 0.2 µM (Surface: Microtiter plate).
